Reference: ChEMBL document CHEMBL6153034, “Synthesis of dolutegravir derivatives modified by 1,2,3-triazole structure and their anti-inflammatory activity in LPS-induced BV2 cells” (Bioorg Med Chem Lett, 2025)
The source made the active and inactive calls.

What was measured:
[1] = Acute toxicity in male Kunming mouse assessed as effect on organ coefficient of liver at 250 mg/kg administered via gavage; assay type: organism-based; settings: in vivo, po
[2] = Acute toxicity in male Kunming mouse assessed as effect on organ coefficient of kidney at 250 mg/kg administered via gavage; assay type: organism-based; settings: in vivo, po
BV-2 [3] = test: Inhibition of LPS-induced nuclear translocation of p-STAT1 in mouse BV-2 cells at 10 uM preincubated for 2 hrs followed LPS addition and measured after 3 hrs by Western blot analysis; assay type: functional, cell-based; settings: time 5.0 hrs
BV-2 [4] = test: Inhibition of LPS-induced nuclear translocation of p-STAT3 in mouse BV-2 cells at 10 uM preincubated for 2 hrs followed LPS addition and measured after 3 hrs by DAPI staining based immunofluorescence assay; assay type: functional, cell-based; settings: time 5.0 hrs
BV-2 [5] = test: Antiinflammatory activity in LPS-induced mouse BV-2 cells assessed as downregulation of iNOS protein expression level preincubated for 2 hrs followed by LPS addition and measured after 24 hrs by Western blot analysis; assay type: functional, cell-based; settings: dose 5-10 µM, time 26.0 hrs
BV-2 [6] = test: Antiinflammatory activity in LPS-induced mouse BV-2 cells assessed as decrease in TNF-alpha production preincubated for 2 hrs followed by LPS addition and measured after 24 hrs by qRT-PCR analysis; assay type: functional, cell-based; settings: dose 5-10 µM, time 26.0 hrs
[7] = target: T1, Signal transducer and activator of transcription 1 (Mus musculus) (UniProt P42225); test: Inhibition of STAT1 phosphorylation at Tyr701 residue in LPS-induced mouse BV-2 cells at 5 to 10 uM preincubated for 2 hrs followed by LPS addition and measured after 3 hrs by Western blot analysis; assay type: cell-based; settings: dose 5-10 µM, time 5.0 hrs
T1 sequence (whole entry): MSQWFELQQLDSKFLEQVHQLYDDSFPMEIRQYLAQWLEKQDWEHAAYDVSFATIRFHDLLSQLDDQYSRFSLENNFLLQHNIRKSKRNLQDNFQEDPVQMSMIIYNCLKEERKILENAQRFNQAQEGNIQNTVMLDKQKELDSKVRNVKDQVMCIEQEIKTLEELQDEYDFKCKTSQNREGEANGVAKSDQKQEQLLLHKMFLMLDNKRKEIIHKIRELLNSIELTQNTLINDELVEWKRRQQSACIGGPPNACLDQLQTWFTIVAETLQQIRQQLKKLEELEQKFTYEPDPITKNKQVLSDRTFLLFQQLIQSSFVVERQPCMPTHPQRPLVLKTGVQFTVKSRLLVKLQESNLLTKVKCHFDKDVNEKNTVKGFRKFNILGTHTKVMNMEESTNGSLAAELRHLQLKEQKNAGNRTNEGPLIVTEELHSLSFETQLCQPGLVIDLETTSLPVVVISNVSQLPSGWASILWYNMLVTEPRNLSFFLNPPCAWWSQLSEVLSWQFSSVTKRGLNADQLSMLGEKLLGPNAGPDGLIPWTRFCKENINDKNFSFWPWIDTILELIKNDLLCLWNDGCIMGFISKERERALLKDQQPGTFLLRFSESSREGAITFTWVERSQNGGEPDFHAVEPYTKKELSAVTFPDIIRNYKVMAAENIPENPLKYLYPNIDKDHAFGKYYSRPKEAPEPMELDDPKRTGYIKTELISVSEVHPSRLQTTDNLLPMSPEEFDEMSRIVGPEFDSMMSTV

[8] = Acute toxicity in male Kunming mouse assessed as effect on organ coefficient of spleen at 250 mg/kg administered via gavage; assay type: organism-based; settings: in vivo, po

COc1c2n(cc(C(=O)Nc3cccc(-c4cn(-c5ccccc5Cl)nn4)c3)c1=O)C[C@@H]1OCC[C@@H](C)N1C2=O
active: inhibition (BV-2 [3]) | inhibition (BV-2 [4]) | Activity (BV-2 [5]) Dose-dependent-effect | Activity (BV-2 [6]) Dose-dependent-effect | inhibition [7]
Non-toxic: Activity [1] | Activity [2] | Activity [8]
